# Measured values as given in ChEMBL document CHEMBL1143499, “Fused pyrimidine based inhibitors of phosphodiesterase 7 (PDE7): synthesis and initial structure-activity relationships” (Bioorg Med Chem Lett, 2005).
# pIC50: −log10 of the molar value.
# Experiments:
# [1] = Relative binding to Phosphodiesterase 5 and Phosphodiesterase 7, ratio of IC50
# [2] = Relative binding to Phosphodiesterase 4 and Phosphodiesterase 7, ratio of IC50
# [3] = Relative binding to Phosphodiesterase 1 and Phosphodiesterase 7, ratio of IC50
# [4] = Relative binding to Phosphodiesterase 3 and Phosphodiesterase 7, ratio of IC50
# [5] = Inhibition of Phosphodiesterase 7
# [6] = Inhibition of Phosphodiesterase 1
# [7] = Inhibition of Phosphodiesterase 5
# [8] = biological target: cGMP-dependent 3',5'-cyclic phosphodiesterase (Homo sapiens, UniProt O00408); assay: Inhibition of Phosphodiesterase 2
# cGMP-dependent 3',5'-cyclic phosphodiesterase, sequence (O00408 whole entry): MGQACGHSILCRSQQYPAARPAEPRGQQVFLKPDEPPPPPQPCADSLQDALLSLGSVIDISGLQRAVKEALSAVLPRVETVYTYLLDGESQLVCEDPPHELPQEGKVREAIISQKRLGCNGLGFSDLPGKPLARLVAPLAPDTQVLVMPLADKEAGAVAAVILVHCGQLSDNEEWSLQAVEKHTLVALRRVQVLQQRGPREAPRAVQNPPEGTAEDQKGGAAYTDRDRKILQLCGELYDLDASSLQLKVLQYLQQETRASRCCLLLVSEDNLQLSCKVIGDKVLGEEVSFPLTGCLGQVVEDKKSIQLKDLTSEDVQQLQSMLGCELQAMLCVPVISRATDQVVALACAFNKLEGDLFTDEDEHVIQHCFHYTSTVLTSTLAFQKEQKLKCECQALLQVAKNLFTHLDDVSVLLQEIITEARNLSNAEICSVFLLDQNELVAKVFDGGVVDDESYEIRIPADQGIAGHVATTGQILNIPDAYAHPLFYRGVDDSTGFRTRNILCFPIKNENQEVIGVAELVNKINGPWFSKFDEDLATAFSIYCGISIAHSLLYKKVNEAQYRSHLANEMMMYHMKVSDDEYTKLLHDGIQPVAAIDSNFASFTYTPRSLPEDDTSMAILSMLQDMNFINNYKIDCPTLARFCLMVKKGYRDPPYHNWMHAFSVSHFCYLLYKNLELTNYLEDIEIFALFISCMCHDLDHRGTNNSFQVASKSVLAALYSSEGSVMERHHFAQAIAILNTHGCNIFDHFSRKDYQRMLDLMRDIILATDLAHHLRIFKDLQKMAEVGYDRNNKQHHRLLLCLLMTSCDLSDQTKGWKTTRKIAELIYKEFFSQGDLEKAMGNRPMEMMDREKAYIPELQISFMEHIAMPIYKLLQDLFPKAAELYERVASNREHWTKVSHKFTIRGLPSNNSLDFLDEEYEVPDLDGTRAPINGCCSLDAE
# [9] = biological target: Phosphodiesterase 3 (Homo sapiens, UniProt Q14432+Q13370); assay: Inhibition of Phosphodiesterase 3; type: protein assay
# [10] = Inhibition of Phosphodiesterase 4
# [11] = Relative binding to Phosphodiesterase 2 and Phosphodiesterase 7, ratio of IC50
SMILES,Ratio [1],Ratio [2],Ratio [3],Ratio [4],pIC50 [5],pIC50 [6],pIC50 [7],pIC50 [8],IC50 [9] [nM],pIC50 [10],Ratio [11]
CCOC(=O)c1sc(Nc2nc(N3CCN(C)CC3)c3c(n2)N(Cc2cc(OC)c(OC)c(OC)c2)CC3)nc1C,104,189,156,315,7.70,,,,,,
CCOC(=O)c1sc(Nc2nc(N3CCNCC3)c3c(n2)N(Cc2cc(OC)c(OC)c(OC)c2)CC3)nc1C,362,795,576,1880,8.22,,,,,,
CCOC(=O)c1sc(Nc2nc(N3CCNCC3)c3c(n2)N(Cc2ccc(S(C)(=O)=O)cc2)CC3)nc1C,1,94,352,1030,7.70,,,,,,
CCOC(=O)c1sc(Nc2nc(NC)c3c(n2)N(Cc2ccc(S(C)(=O)=O)cc2)CC3)nc1C,,6,,,6.47,,,,,,
CCOC(=O)c1sc(Nc2nc(N3CCNCC3)c3c(n2)N(Cc2ccc(S(C)(=O)=O)cc2)CCC3)nc1C,8,54,157,392,7.22,,,,,,27
COc1ccc(C2CNC(=O)C2)cc1OC1CCCC1 (stereo not given) [ROLIPRAM],,,,,< 5.00,< 5.00,< 5.00,< 5.00,> 10000,6.13,
CCOC(=O)c1sc(Nc2nc(NC)c3ncn(Cc4ccc(S(C)(=O)=O)cc4)c3n2)nc1C,8,3,556,259,7.05,4.30,6.14,,23300,6.57,
CCOC(=O)c1sc(Nc2nc(N3CCNCC3)c3c(n2)N(Cc2cc(OC)c(OC)c(OC)c2)CCO3)nc1C,1240,1200,1170,3850,8.30,,,,,,
CCOC(=O)c1sc(Nc2nc(NCc3ccc(OC)c(OC)c3)c3c(ncn3CC)n2)nc1C,1.8,7.3,1.5,3.8,6.82,6.66,6.57,5.77,580,,11

# More lines, now with the values ahead:
Ratio [1],Ratio [2],Ratio [3],Ratio [4],pIC50 [5],pIC50 [6],pIC50 [7],pIC50 [8],IC50 [9] [nM],pIC50 [10],Ratio [11],SMILES
7,13,35,154,6.82,,,,,,,CCOC(=O)c1sc(Nc2nc(N3CCN(O)CC3)c3c(n2)N(Cc2ccccn2)CC3)nc1C
,,,,7.96,6.02,7.96,6.02,2970,6.26,,CCOC(=O)c1sc(Nc2nc(NCc3ccc(S(N)(=O)=O)cc3)c3c(ncn3CC)n2)nc1C
182,105,166,734,7.52,,,,,,114,CCOC(=O)c1sc(Nc2nc(N3CCNCC3)c3c(n2)N(Cc2cc(OC)c(OC)c(OC)c2)CCC3)nc1C
13,35,162,390,7.00,,,,,,33,CCOC(=O)c1sc(Nc2nc(N3CCNCC3)c3c(n2)N(Cc2cccnc2)CCC3)nc1C
,,,,< 5.00,< 5.00,7.96,,,5.34,,CCCc1nn(C)c2c(=O)[nH]c(-c3cc(S(=O)(=O)N4CCN(C)CC4)ccc3OCC)nc12
64,67,64,206,7.15,,,,,,,CCOC(=O)c1sc(Nc2nc(N3CCN(C)CC3)c3c(n2)N(Cc2cc(OC)c(OC)c(OC)c2)CCO3)nc1C
9,27,39,174,6.82,,,,,,,CCOC(=O)c1sc(Nc2nc(N3CCN(C)CC3)c3c(n2)N(Cc2cc(OC)c(OC)c(OC)c2)CCC3)nc1C
